Experiments:
[1] = test system: Banded crickets; experiment: Residual insecticides against banded crickets (surfaces aged 7 DAT); format: in vivo; details: 0.75 gallons per acre
Description: Post-Treatment Arenas: 20 oz. […] A potato cutting was added as a food source. Clean post-treatment arenas were used to contain the test systems after exposure to the test substances.
(§1) The test substances were shaken and then mixed at a rate of 5.324 mL of concentrate per 200 ml of water.
The diluted test substances were adequately shaken prior to applications. A track spraying jig was used to make a linear application. […] This equated to a treatment rate of 0.75 gallons per acre.

[2] = test system: E. coli; experiment: E. coli growth inhibition, essential oil comparison in the non-essential oil fraction (CFU count); format: cell-based, Escherichia coli; details: oils in non-essential oil fraction
Description: (§2) Escherichia coli was grown in the presence of each component or combinations to determine the inhibitory potential. […] The appropriate amount of each component was added to 5 mL of LB media, and each culture was inoculated with 50 μL of a 12 hour old culture of E. coli. The cultures were grown for 12 hours at 37° C. with shaking at 225 rpm before being serial diluted and plated onto solid LB agar plates (5 μL per plate) in triplicate. Plates were incubated for 24 hours at 37° C., and then colonies were counted to determine the inhibitory potential.
Combinations of essential oils, each at the concentration indicated in Example 1, were assayed for their inhibitory potential in a similar manner as Example 1.
The essential oils were then tested in the non-essential oil fraction for synergy. […] Also, there was increasing antimicrobial action of the essential oils related to the combination of the oils leading to the highest activity found in the Essential Oil-Ark product.

[3] = test system: Pseudomonas aeruginosa ATCC 9027; experiment: Inhibition assay of essential oils and pairings in base solution, log reduction and synergy; format: cell-based; details: pairing Clove + Geraniol; log reduction of pairing divided by that of the pure oil named
[4] = test system: Escherichia coli; experiment: E. coli growth inhibition by individual components and combinations (CFU count); format: cell-based; details: for CFUs / CFUs/mL: CFU after 24 hours; for reduction of growth of E. coli (in words): component alone
Description: as §2

[5] = test system: Banded crickets; experiment: Direct spray insecticides against banded crickets; format: in vivo; details: 0.75 gallons per acre
Description: The Test Arenas were used to contain the test systems during the test substance applications.
Post-Treatment Arenas: 20 oz. SOLO cups with mesh lids were used as post-treatment arenas. A potato cutting was added as a food source. Clean post-treatment arenas were used to contain the test systems after exposure to the test substances.
Application Equipment: A compressed air sprayer with a flat fan nozzle, pressurized to 20 PSI was used to make applications.
as §1
The diluted test substances were adequately shaken prior to applications. A track spraying jig was used to make a linear application. A single cartridge containing 10 test systems was placed in the middle of the spray path. […] This equated to a treatment rate of 0.75 gallons per acre.
The observations were made by raising the test arenas and gently blowing air on the test systems to provoke movement, lightly prodding the test systems, or the test arenas were shaken/agitated to provoke test system movement.
The test systems were transferred from the Treatment Arenas into the clean Post-Treatment Arenas 1 hour after the applications.

[6] = test system: Candida albicans ATCC 10231; experiment: Inhibition assay of essential oils and pairings in base solution, log reduction and synergy; format: cell-based; details: log reduction of pairing divided by that of the pure oil named

Row | SMILES | Average Percent Mortality ([1]; surface aged 7 DAT, 3 DAT) [%] | efficacy as a residual insecticide (in words) ([1]; up to 7 days after treatment) | Avg ([2]; CFU after 24 hours) | CFUs ([2]; CFU after 24 hours) [CFUs] | CFUs/mL ([2]; CFU after 24 hours) [CFUs/mL] | antimicrobial activity (in words) [2] | Synergistic advantage [3] [%] | CFUs [4] [CFUs] | CFUs/mL [4] [CFUs/mL] | efficacy as a direct kill insecticide (in words) [5] | Average Percent Mortality ([5]; 2 DAT) [%] | Synergistic advantage ([6]; pairing Geraniol + Garlic) [%] | Synergistic advantage ([6]; pairing Geraniol + Peppermint) [%] | Synergistic advantage ([6]; pairing Geraniol + Rosemary) [%] | Synergistic advantage ([6]; pairing Geraniol + Thyme) [%] | reduction of growth of E. coli (in words) [4]
1 | CC(C)=CCC/C(C)=C/CO [Geraniol] | 10 | did not provide high levels of mortality | 43.333 | 43333 | 866660 | highest activity of the essential oils | 106.3 | 2 | 40 | did not provide high levels of mortality | 33 | 120.9 | 103.9 | 103.9 | 103.9 | –
2 | CCCCCCCCCCCCCCCCCC(=O)OCC(O)CO (stereo not drawn) [Glyceryl Monostearate] | – | – | – | – | – | – | – | 8330000 | 166600000 | – | – | – | – | – | – | did not substantially reduce growth of E. coli
3 | C/C=C/C=C/C(=O)[O-].[K+] [Potassium Sorbate] | – | – | – | – | – | – | – | 13000000 | 260000000 | – | – | – | – | – | – | did not substantially reduce growth of E. coli
